Key:
[1] = test system: TP53 WT colon cancer cell line Ls174T; assay: CellTiter-Glo growth inhibition, Ls174T; format: cell-based; conditions: Homo sapiens, 72-hour exposure, FIG. 1
Experimental: Two examples of additional comparisons are provided below for colon cancer cell lines (TP53 WT colon cancer cell line Ls174T and TP53 WT colon cancer cell line LoVo).
In these assays, two 96 well plates of each cell line were seeded with 5,000 cells per well in a total volume of […] per well and left incubating overnight. The following day, the cells were exposed to different concentrations of NUC013. At the end of a 72-hour exposure period, the plates were removed for CellTiter-Glo® assay. Luminescence was recorded on a Synergy 4.0.

OVCAR-8 = assay: NCI 60 Cell Line Panel growth inhibition; format: cell-based, human; conditions: OVCAR-8, Ovarian cancer, TP53 null/mutant
Description: (§1) The NCI-60 Cell Line Panel was assembled by the National Cancer Institute as an in vitro anticancer drug screen. The panel comprises human cancer cell lines representing nine different tissues of origin: breast, colon, central nervous system, renal, lung, melanoma, ovarian, prostate, and hematogenous. […] See, e.g., Leroy et al. “Analysis of TP53 Mutation Status in Human Cancer Cell Lines: a Reassesment” Hum Mutat 2014 35(6): 756-765.

EKVX = assay: NCI 60 Cell Line Panel growth inhibition; format: cell-based, human; conditions: Lung-NSCL, TP53 null/mutant
Description: as §1

CAKI-1 = assay: NCI 60 Cell Line Panel growth inhibition; format: cell-based, human; conditions: CAKI-1, Renal cancer, TP53 wild type
Description: as §1

RPMI-8226 = assay: NCI 60 Cell Line Panel growth inhibition; format: cell-based, human; conditions: RPMI-8226, Leukemia, TP53 null/mutant
Description: as §1

NCI-H522 = assay: NCI 60 Cell Line Panel growth inhibition; format: cell-based, human; conditions: NCI-H522, Lung-NSCL, TP53 null/mutant
Description: as §1

HCT-116 = assay: NCI 60 Cell Line Panel growth inhibition; format: cell-based, human; conditions: HCT-116, Colon cancer, TP53 wild type
Description: as §1

SK-MEL-5 = assay: NCI 60 Cell Line Panel growth inhibition; format: cell-based, human; conditions: SK-MEL-5, Melanoma, TP53 wild type
Description: as §1

NCI-H460 = assay: NCI 60 Cell Line Panel growth inhibition; format: cell-based, human; conditions: NCI-H460, Lung-NSCL, TP53 wild type
Description: as §1

NCI-H226 = assay: NCI 60 Cell Line Panel growth inhibition; format: cell-based, human; conditions: NCI-H226, Lung-NSCL, TP53 null/mutant
Description: as §1

SF-268 = assay: NCI 60 Cell Line Panel growth inhibition; format: cell-based, human; conditions: SF-268, CNS cancer, TP53 null/mutant
Description: as §1

MDA-MB-231 = assay: NCI 60 Cell Line Panel growth inhibition; format: cell-based, human; conditions: MDA-MB-231, Breast cancer, TP53 null/mutant
Description: as §1

UO-31 = assay: NCI 60 Cell Line Panel growth inhibition; format: cell-based, human; conditions: UO-31, Renal cancer, TP53 wild type
Description: as §1

SF-295 = assay: NCI 60 Cell Line Panel growth inhibition; format: cell-based, human; conditions: SF-295, CNS cancer, TP53 null/mutant
Description: as §1

786-0 = assay: NCI 60 Cell Line Panel growth inhibition; format: cell-based, human; conditions: 786-0, Renal cancer, TP53 null/mutant
Description: as §1

NCI/ADR-RES = assay: NCI 60 Cell Line Panel growth inhibition; format: cell-based, human; conditions: Ovarian cancer, TP53 null/mutant
Description: as §1

CCRF-CEM = assay: NCI 60 Cell Line Panel growth inhibition; format: cell-based, human; conditions: Leukemia, TP53 null/mutant
Description: as §1

A498 = assay: NCI 60 Cell Line Panel growth inhibition; format: cell-based, human; conditions: A498, Renal cancer, TP53 wild type
Description: as §1

HCT-15 = assay: NCI 60 Cell Line Panel growth inhibition; format: cell-based, human; conditions: HCT-15, Colon cancer, TP53 null/mutant
Description: as §1

OVCAR-3 = assay: NCI 60 Cell Line Panel growth inhibition; format: cell-based, human; conditions: OVCAR-3, Ovarian cancer, TP53 null/mutant
Description: as §1

BT-549 = assay: NCI 60 Cell Line Panel growth inhibition; format: cell-based, human; conditions: BT-549, Breast cancer, TP53 null/mutant
Description: as §1

Nc1ncn([C@@H]2O[C@H](CO)[C@@H](O)C2(F)F)c(=O)n1 [NUC013, 4-amino-1-((2R,4R,5R)-3,3-difluoro-4-hydroxy-5-(hydroxymethyl)tetrahydrofuran-2-yl)-1,3,5-triazin-2(1H)-one]
GI50 [1]: 1.3 µM | Growth (%) at 10 μM (OVCAR-8): 49.95% | Growth (%) at 10 μM (EKVX): 86.06% | Growth (%) at 10 μM (CAKI-1): 27.86% | Growth (%) at 10 μM (RPMI-8226): 39.24% | Growth (%) at 10 μM (NCI-H522): 86.91% | Growth (%) at 10 μM (HCT-116): 29.84% | Growth (%) at 10 μM (SK-MEL-5): 70.84% | Growth (%) at 10 μM (NCI-H460): 9.34% | Growth (%) at 10 μM (NCI-H226): 52.34% | Growth (%) at 10 μM (SF-268): 65.39% | Growth (%) at 10 μM (MDA-MB-231): 79.98% | Growth (%) at 10 μM (UO-31): 39.00% | Growth (%) at 10 μM (SF-295): 77.93% | Growth (%) at 10 μM (786-0): 26.29% | Growth (%) at 10 μM (NCI/ADR-RES): 42.13% | Growth (%) at 10 μM (CCRF-CEM): 23.67% | Growth (%) at 10 μM (A498): 38.04% | Growth (%) at 10 μM (HCT-15): 52.19% | Growth (%) at 10 μM (OVCAR-3): 70.56% | Growth (%) at 10 μM (BT-549): 53.63%
